The subject of one data set is HXB2-strain of HIV. Kind of data set: Antiviral assay: protection of HIV-infected MT4 cells from virus-mediated cell death (MTT). Format: cell-based. To be noted: Human immunodeficiency virus 1, HXB2, MT4, 120 h, read-out: Antiviral Assay IC50. As to the method:
Anti-HIV antiviral activity was assessed using an adaptation of the method of Pauwels et al. (J. Virol. Methods 1988 20:309-321). The method is based on the ability of compounds to protect HIV-infected T lymphoblastoid cells (MT4 cells) from cell-death mediated by the infection. The endpoint of the assay was calculated as the concentration of compound at which the cell viability of the culture was preserved by 50% (‘50% inhibitory concentration’, IC50). The cell viability of a culture was determined by the uptake of soluble, yellow 3-[4,5-dimethylthiazol-2-yl]-2,5-diphenyltetrazolium bromide (MTT) and its reduction to a purple insoluble formazan salt. After solubilization, spectrophotometric methods were employed to measure the amount of formazan product. […]
A fresh solution of 5 mg/mL MTT was prepared in 0.01 M phosphate buffered saline, pH 7.2 and 20 microliters added to each culture. […] When the formazan deposit was fully solubilized by further mixing, the absorbance (OD) of the cultures was measured at 540 nm and 690 nm wavelength (690 nm readings were used as blanks for artifacts between wells). The percent protection for each treated culture was then calculated from the equation: […]

Among the data in patent publication US7906540B2, “Non-nucleoside reverse transcriptase inhibitors” (Roche Palo Alto LLC, priority 2007, dated 2011) are melting point and IC50 values, retold here.

The structures appear in SMILES notation. Where a name gives a salt, the structure may show the parent alone.

Regarding `Cn1c(COc2ccc(Cl)cc2C(=O)c2cc(Cl)cc(C#N)c2)n[nH]c1=O`, the melting point lay within 210 to 213.9 °C.
The compound `Cn1c(COc2ccc(Br)c(Oc3cc(Cl)cc(C#N)c3)c2)n[nH]c1=O` registered a melting point of 95.2 to 100.7 °C.
On the same count and under the same terms, the result for `CCc1ccc(OCc2n[nH]c(=O)n2C)c(F)c1Oc1cc(Cl)cc(C#N)c1` reads 179 to 180 °C.
On to `Cn1c(COc2ccc(Br)c(F)c2Oc2cc(C#N)cc(C(F)F)c2)n[nH]c1=O`, for which the melting point was in the range of 193 to 194 °C.
Take `CCc1ccc(OCc2n[nH]c(=O)n2C)c(Oc2cc(C#N)cc(C(F)F)c2)c1F`: the melting point was 160 to 161 °C.
`Cn1c(CCc2ccc(Br)c(F)c2Oc2cc(Cl)cc(C#N)c2)n[nH]c1=O` came in with a melting point of 212.4 to 214.2 °C.
For `CCc1cc(C#N)cc(Oc2c(OCc3n[nH]c(=O)n3C)ccc(CC)c2F)c1`, the melting point is 164 to 166 °C.
The same measure, in the same setting: as for `CCc1ccc(OCc2n[nH]c(=O)n2C)c(Oc2cc(C#N)cc(C3CC3)c2)c1F`, the figure is 166 to 168 °C; as for `Cn1c(COc2ccc(Br)c(F)c2Oc2cc(C#N)cc(CC(F)(F)F)c2)n[nH]c1=O`, 197.1 to 202.1 °C.
`Cn1c(COc2ccc(Cl)c(Oc3cc(Cl)cc(C#N)c3)c2Cl)n[nH]c1=O` gave a melting point of 224.4 to 225.6 °C.
For the compound `Cn1c(COc2ccc(Cl)cc2Oc2cc(Cl)cc(C#N)c2)n[nH]c1=O`, the melting point lay in the range of 176 to 177 °C.
`Cn1c(COc2ccc(Cl)c(Oc3cc(C#N)cc(C(F)F)c3)c2F)n[nH]c1=O` had a melting point of 184.5 to 185.3 °C.
Consider `Cn1c(COc2ccc(Br)c(F)c2Oc2cc(Cl)cc(C#N)c2)n[nH]c1=O`, for which the melting point fell in the range of 192.5 to 193 °C.
In turn, `Cn1c(COc2ccc(Br)c(F)c2Oc2cc(C#N)cc(C#N)c2)n[nH]c1=O` yielded a melting point of 205.5 to 207 °C.
The same measure, in the same setting: as for `Cn1c(CCc2ccc(Br)c(Oc3cc(Cl)cc(C#N)c3)c2F)n[nH]c1=O`, the figure is 186 to 187 °C.
Compound `Cn1c(COc2ccc(Cl)c(Oc3cc(Cl)cc(C#N)c3)c2F)n[nH]c1=O` (as salt: salt) [Compound I-2, 3-Chloro-5-[6-chloro-2-fluoro-3-(4-methyl-5-oxo-4,5-dihydro-1H-[1,2,4]triazol-3-ylmethoxy)-phenoxy]-benzonitrile; formate salt] displayed a melting point of 221 to 225 °C.
As for `Cn1c(COc2ccc(Br)c(Oc3cc(C#N)cc(C(F)F)c3)c2F)n[nH]c1=O` (as salt: salt) [Compound I-4, 3-[6-Bromo-2-fluoro-3-(4-methyl-5-oxo-4,5-dihydro-1H-[1,2,4]triazol-3-ylmethoxy)-phenoxy]-5-difluoromethyl-benzonitrile; trifluoro-acetic acid salt], the melting point lay within 199.2 to 201 °C.
For the compound `Cn1c(COc2ccc(Cl)c(Oc3cc(Cl)cc(C#N)c3)c2F)n[nH]c1=O` [Compound I-2, 3-Chloro-5-[6-chloro-2-fluoro-3-(4-methyl-5-oxo-4,5-dihydro-1H-[1,2,4]triazol-3-ylmethoxy)-phenoxy]-benzonitrile; formate salt], the half-maximal inhibitory concentration (IC50) in the data set on HXB2-strain of HIV came out at 1.5 nM.
Still for that read-out and setting: as for `Cn1c(COc2ccc(Br)c(Oc3cc(C#N)cc(C(F)F)c3)c2F)n[nH]c1=O` [Compound I-4, 3-[6-Bromo-2-fluoro-3-(4-methyl-5-oxo-4,5-dihydro-1H-[1,2,4]triazol-3-ylmethoxy)-phenoxy]-5-difluoromethyl-benzonitrile; trifluoro-acetic acid salt], the figure is 0.7 nM.
